Patent US9809560B2, “Ligands and methods for labeling biomolecules in vivo” (Albert Einstein College of Medicine, Inc., priority 2010, dated 2017)
Counter-ions that a name gives are not always drawn.

How the values were obtained:
[1] = system: PD1-Fc; assay: Labeling of PD1-Fc via CuAAC and Cu-free click chemistry, detection by Western blot; details: 1 h; for Western blot labeling signal: CuAAC with biotin-alkyne 100 μM or BARAC-biotin 100 μM
Protocol: FIG. 13. Comparison of the efficiency of the CuAAC and BARAC-mediated copper-free click chemistry in labeling recombinant proteins and crude cell lysates. Western blot analysis of PD1-Fc isolated from HEK cells treated with Ac4ManNAz (top panel). Total protein loading was confirmed by Coomassie staining (bottom panel). Reaction conditions for CuAAC: biotin-alkyne (100 μM) in the presence of sodium ascorbate (2.5 mM), CuSO4 (250 μM) premixed with various tristriazolylamino ligands (500 μM); copper-free click reaction: BARAC-biotin (100 μM). Reactions were allowed to proceed for 1 h at room temperature, and analyzed by Western blot using an HRP-conjugated anti-biotin antibody. Structural formulae of tris(triazolylmethyl)amine-based ligands and BARAC-biotin. BTTAA=2-[4-({bis[(1-tert-butyl-1H-1,2,3-triazol-4-yl)methyl]amino}methyl)-1H-1,2,3-triazol-1-yl]acetic acid, BTTES=2-[4-({bis[(1-tert-butyl-1H-1,2,3-triazol-4-yl)methyl]amino}methyl)-1H-1,2,3-triazol-1-yl]ethyl hydrogen sulfate, TBTA=tris[(1-benzyl-1H-1,2,3-triazol-4-yl)methyl]amine, THPTA=tris[(1-hydroxypropyl-1H-1,2,3-triazol-4-yl)methyl]amine, BARAC=biarylazacyclooctynone.
To evaluate the activity of the new ligand-Cu(I) complex and compare the click reactions in the context of biomolecular labeling experiments, the first system used was a recombinant glycoprotein—Programmed Death 1-Immunoglobulin G Fc fusion (PD1-Fc). When expressed in mammalian cells, the Fc region of the recombinant protein is glycosylated and terminated with sialic acids. HEK-293 cells stably expressing PD1-Fc fusion protein were cultured in medium containing 50 μM sialic acid metabolic precursor—peracetylated N-azidoacetylmannosamine (Ac4ManNAz) for 4 days. The target protein was then isolated using protein G (a genetically engineered protein that contains Fc binding domains of protein G) agarose. To probe for the presence of the sialic acid-associated azide, the protein was reacted with biotin-alkyne via the CuAAC or BARAC-biotin via the copper-free click chemistry. For the CuAAC, 100 μM of biotin-alkyne was used as the coupling partner and the ratio of biotin-alkyne, ligand, CuSO4 and sodium ascorbate was held at 1:5:2.5:25, a labeling condition optimized in the lab. The copper-free click chemistry was performed with 100 μM of BARAC-biotin. The reactions were allowed to proceed for one hour and the labeled protein was analyzed by SDS-PAGE and Western blot. As quantified by ImageJ, reactions mediated by BTTES-Cu(I) and BTTAA-Cu(I) provided 2.6- and 2.1-fold stronger signal than the signal afforded by THPTA-Cu(I) for the fusion protein isolated from Ac4ManNAz-treated culture. […]

[2] = system: Jurkat cells; assay: Live cell labeling of Ac4ManNAl-treated cells, BTTPS-Cu(I) vs BTTP-Cu(I), Alexa Fluor 488-streptavidin and 7-AAD flow cytometry; format: cell-based, human; details: for mean fluorescence intensity: 15 min
Protocol: FIG. 12A-12D. Comparison of the efficiency of the BTTPS-Cu(I) and BTTP-Cu(I)-mediated azide-alkyne cycloaddition in labeling sialylated glycoconjugates in live cells. Jurkat cells were cultured in the presence or absence of Ac4ManNAl for 3 days. Cells were then reacted with biotin azide (50 μM) in the presence of sodium ascorbate (2.5 mM), and CuSO4 premixed with ligands BTTPS or BTTP ([ligand]:[CuSO4]=6:1). Reactions were quenched with BCS, stained with Alexa Fluor 488-streptavidin, 7-AAD, and analyzed by flow cytometry. (A) Mean fluorescence intensity (MFI) of cells treated with the BTTPS-Cu(I) or BTTP-Cu(I) catalyst ([CuSO4]=75 μM) in the course of 5-15 min reactions. (B) Percentage of viable cells without cell-membrane damage post the click reactions with the BTTPS-Cu(I) or BTTP-Cu(I) catalyst ([CuSO4]=75 μM) in the course of 5-15 min reactions. (C) MFI of cells treated with the BTTPS-Cu(I) catalyst ([CuSO4]=20-75 μM) in a one-minute reaction. (D) Percentage of viable cells without cell-membrane damage post the click reactions with the BTTPS-Cu(I) catalyst ([Cu]=20-75 μM) in a one-minute reaction.
In the ligand design, sulfation of BTTP is used to generate a negatively charged ligand, BTTPS (3-(4-((bis((1-tert-butyl-1H-1,2,3-triazol-4-yl)methyl)amino)methyl)-1H-1,2,3-triazol-1-yl)propyl hydrogen sulfate), (FIG. 14) to minimize the cellular internalization of the coordinated copper. To evaluate if sulfation confers the ligand the desired property, BTTPS-Cu(I) and BTTP-Cu(I) were compared in live cell labeling experiments. Jurkat cells were metabolically labeled with Ac4ManNAl. The treated cells were reacted with biotin-azide (50 μM) in the presence of BTTPS-Cu(I) or BTTP-Cu(I) for 5-15 min at room temperature (catalyst formulation: [ligand]:[CuSO4]=6:1, [CuSO4]=75 μM). After the reaction was quenched with BCS, the biotinylated cells were incubated with Alexa Fluor 488-streptavidin. The cells were then stained with 7-aminoactinomycin D (7-AAD), a fluorescent molecule with strong affinity for double-stranded DNA, and analyzed by flow cytometry. […] Therefore, healthy and damaged cells can be easily distinguished. […] Greater than 60% cells were still undamaged after treatment with BTTPS-Cu(I) (7-AAD negative), whereas only 26% cells treated with BTTP-Cu(I) reminded normal (FIG. 12b). Furthermore, the labeling temperature also plays a significant role in modulating the Cu-associated toxicity. When both Jurkat cells and the labeling reagents were pre-cooled to 4° C. before triggering the CuAAC, greater than 85% cells remained viable after a 15 min BTTPS-Cu(I)-mediated reaction with high labeling efficiency achieved (mean fluorescence intensity 2200, for reactions performed at 4° C.-room temperature vs 3679, for reactions performed at room temperature).

[3] = cited from earlier work
[4] = system: zebrafish embryos; details: 1 mM CuSO4, 1.5 mM sodium ascorbate, 0.1 mM TBTA ligand; cited from earlier work
[5] = Fluorogenic kinetic assay of CuAAC of 3-azido-7-hydroxy-coumarin and propargyl alcohol; details: TBTA-Cu(I)-catalyzed reaction, same fluorogenic assay
Protocol: FIG. 1A-1C. Copper(I)-catalyzed azide-alkyne cycloaddition (CuAAC) is accelerated by Cu(I)-stabilizing ligands. (A) CuAAC of azides and terminal alkynes to form 1,4-disubstituted 1,2,3-triazoles. (B) Structures of CuAAC-accelerating ligands. (C) Conversion-time profiles of CuAAC in the presence/absence of accelerating ligands. Reaction conditions: propargyl alcohol (50 μM), 3-azido-7-hydroxy-coumarin (100 μM), CuSO4 (75 μM), 0.1 M potassium phosphate buffer (pH 7.0)/DMSO 95:5, sodium ascorbate ([…]), rt. Error bars represent the standard deviation of three replicate experiments.
Protocol for Kinetic Measurement of CuAAC of 3-azido-7-hydroxy-coumarin and Propargyl Alcohol […]
Procedure for 200 μL reactions: In a 96-well fluorescence plate, add the reagents in the following order: (1) 40 μL of 500 mM phosphate buffer pH 7.0; (2) 1.0 μL 10 mM propargyl alcohol; (3) 10 μL of DMSO; (4) 6 μL of premixed CuSO4 and ligand ([Cu]=2.5 mM); (5) 1.0 μL 20 mM coumarin-N3; (6) 20 μL of 25 mM sodium ascorbate; (7) Read fluorescence (λex=404 nm, λem=477 nm, RFU) on the Synergy plate reader.

**Q.** Which “signal relative to THPTA-Cu(I) (Western blot, ImageJ)” value ([1]; biotin-alkyne 100 μM, ligand 500 μM, CuSO4 250 μM, sodium ascorbate 2.5 mM) does the source give for `CC(C)(C)n1cc(CN(Cc2cn(CC(=O)O)nn2)Cc2cn(C(C)(C)C)nn2)nn1` [BTTAA, 2-(4-((bis((1-tert-butyl-1H-1,2,3-triazol-4-yl)methyl)amino)methyl)-1H-1,2,3-triazol-1-yl)acetic acid] here?
**A.** 2.1 fold

**Q.** With `CC(C)(C)n1cc(CN(Cc2cn(CCCOS(=O)(=O)O)nn2)Cc2cn(C(C)(C)C)nn2)nn1` [BTTPS, 3-(4-((bis((1-tert-butyl-1H-1,2,3-triazol-4-yl)methyl)amino)methyl)-1H-1,2,3-triazol-1-yl)propyl hydrogen sulfate] as the molecule, how does the mean fluorescence intensity ([2]; reactions performed at 4° C.-room temperature) read?
**A.** 2200

**Q.** And the mean fluorescence intensity ([2]; reactions performed at room temperature)?
**A.** 3679

**Q.** What about the “cells undamaged (7-AAD negative)” value ([2]; 15 min reaction at room temperature, [ligand]:[CuSO4]=6:1, [CuSO4]=75 μM) of the same molecule?
**A.** Greater than 60%

**Q.** And the cells remaining viable ([2]; cells and reagents pre-cooled to 4° C., 15 min reaction)?
**A.** greater than 85%

**Q.** With `c1ccc(Cn2cc(CN(Cc3cn(Cc4ccccc4)nn3)Cc3cn(Cc4ccccc4)nn3)nn2)cc1` [TBTA, tris[(1-benzyl-1H-1,2,3-triazol-4-yl)methyl]amine] as the molecule, how does the water solubility [3] read?
**A.** very poor water solubility

**Q.** And the “time by which all embryos were dead” value [4]?
**A.** ≤ 15 min

**Q.** What about the “cycloaddition product yield at leveling off” value [5] of the same molecule?
**A.** < 20%

**Q.** What about the “Western blot labeling signal” value [1] of the same molecule?
**A.** no detectable signal

**Q.** With biarylazacyclooctynone [BARAC] as the molecule, how does the “Western blot labeling signal” value [1] read?
**A.** no detectable signal

**Q.** Which “Western blot labeling signal” value [1] does the source give for “tris[(1-hydroxypropyl-1H-1,2,3-triazol-4-yl)methyl]amine [THPTA]” here?
**A.** significantly weaker labeling
